US20080045535A1, “Prokineticin 2 receptor antagonists” (priority 2005, published 2008)
Several values for one entry are separate records, joined by “and”; a condition that tells them apart may be missing. Equal values may be shown once.

Target: T1, HEK 293 GPR73 (prokineticin 1 receptor) expressing cells (Homo sapiens, UniProt Q8TCW9)
T1 construct: expressed in transfected cells; host or cells: HEK 293
Test: PK1 functional assay: screening for PK1 antagonists on the FLIPR (calcium fluorescence)
Type: cell-based
Settings: HEK 293 GPR73 cells; for inhibition at 10 µM: HEK293, compound at 10 μM, read-out: Ca^2+ Mobilization % Inh @10 μM; for inhibition at 10 µM / Ca^2+ Mobilization % Inh @10 μM: multiple values = repeat tests; for IC50: PK1 ligand at EC50, multiple values = repeat tests, read-out: Ca^2+ Mobilization IC50; for Ca^2+ Mobilization % Inh @10 μM: compound at 10 μM
Experimental: At a time of 24 h prior to running the assay, in cell culture media (DMEM containing high Glucose and L-glutamine, 10% FBS, 1% Pen/Streptomycin, 1% Sodium Pyruvate, 20 mM HEPES, Zeocin 200 mg/L), 100 μL of 1.3*10^6/ml HEK 293 GPR73 (prokineticin 1 receptor) expressing cells were plated in a 96 well poly-d-lysine coated plate (Costar), and incubated at 37 C and 5% CO2. On the day in which the assay was run, the media was removed and 200 μL of 5× Calcium Plus Dye (Molecular Devices) which was previously resuspended with 200 mL of assay buffer [HBSS w/Ca^2+ and Mg^2+ w/o phenol red, 20 mM HEPES, 0.1% BSA, 10 mL probenecid (710 mg probenecid in 5 mL of 1N NaOH, to which was then added 5 mL HBSS containing 20 mM HEPES)] was added to each well of the 96-well plate. The plate was incubated at 37 C and 5% CO2 for 30 min in dark. The plate was removed and allowed to reach RT for 15 min in the dark. The assay was then run on the FLIPR. […] Baseline is described as the amount of relative fluorescence read when buffer alone is added to cells. Baseline was subtracted from all wells. Percent of control was calculated as follows:
(Baseline subtracted well value is divided by baseline subtracted max value)*100.
Percent inhibition is 100 minus the percent of control value.
IC50 values were calculated using GraphPad Prism.
Table 2 includes data generated from the PK1 functional assay described in Example 2.

T1 sequence (Q8TCW9 whole entry): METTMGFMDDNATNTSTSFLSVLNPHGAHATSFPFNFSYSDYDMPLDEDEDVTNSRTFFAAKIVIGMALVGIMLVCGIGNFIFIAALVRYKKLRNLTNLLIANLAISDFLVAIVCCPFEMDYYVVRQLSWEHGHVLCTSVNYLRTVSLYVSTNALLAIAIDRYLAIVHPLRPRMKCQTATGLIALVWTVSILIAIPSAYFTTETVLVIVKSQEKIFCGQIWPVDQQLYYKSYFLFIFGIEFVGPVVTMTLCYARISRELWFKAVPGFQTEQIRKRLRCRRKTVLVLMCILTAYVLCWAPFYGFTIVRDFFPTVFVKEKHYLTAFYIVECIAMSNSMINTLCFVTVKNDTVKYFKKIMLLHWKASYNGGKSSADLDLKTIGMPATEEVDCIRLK

Structure (SMILES)	inhibition at 10 µM [%]	IC50	Ca^2+ Mobilization % Inh @10 μM (10 µM)	Ca^2+ Mobilization % Inh @10 μM [%]
COc1ccc(Cn2c(N[C@@H]3CCCC[C@@H]3NC(=N)N)nc(=O)n(Cc3ccc(Cl)c(Cl)c3)c2=O)cc1 (racemic) [Cpd 42]	92	281 nM		
NC(N)=NCCNc1nc(=O)n(Cc2ccccc2)c(=O)n1Cc1ccc(F)cc1 [Cpd 1]	30	> 10000 nM		
COc1ccc(Cn2c(NCCNC(=N)N)nc(=O)n(Cc3ccccc3)c2=O)cc1 [Cpd 2]	92	125 nM and 363 nM and 336 nM and 927 nM	85% and 74% and 87%	
COC(=O)c1ccc(Cn2c(NCCNC(=N)N)nc(=O)n(Cc3ccccc3)c2=O)cc1 [Cpd 3]		4960 nM		52
COc1ccc(Cn2c(NCCNC(=N)N)nc(=O)n(CCc3ccccc3)c2=O)cc1 [Cpd 4]	71	2500 nM		
CCCCn1c(=O)nc(NCCNC(=N)N)n(Cc2ccc(OC)cc2)c1=O [Cpd 5]	67	2180 nM		
COc1ccc(Cn2c(NCCNC(=N)N)nc(=O)n(Cc3ccco3)c2=O)cc1 [Cpd 6]	59	2590 nM		
N=C(N)NCCNc1nc(=O)n(Cc2ccccc2)c(=O)n1Cc1cccc(C(F)(F)F)c1 [Cpd 7]	52	> 10000 nM		
CC(C)(C)c1ccc(Cn2c(NCCNC(=N)N)nc(=O)n(Cc3ccccc3)c2=O)cc1 [Cpd 8]	64	3850 nM		
N=C(N)NCCNc1nc(=O)n(Cc2ccccc2)c(=O)n1Cc1ccc([N+](=O)[O-])cc1 [Cpd 9]		> 10000 nM		35
COc1ccc(Cn2c(NCCONC(=N)N)nc(=O)n(Cc3ccccc3)c2=O)cc1 [Cpd 10]		> 10000 nM		33
N=C(N)NCCNc1nc(=O)n(Cc2ccccc2)c(=O)n1Cc1ccncc1 [Cpd 11]	32	> 10000 nM		
CCOc1ccc(Cn2c(NCCNC(=N)N)nc(=O)n(Cc3ccccc3)c2=O)cc1 [Cpd 12]	97	34 nM and 82 nM and 247 nM	96% and 94% and 90%	
N=C(N)NCCNc1nc(=O)n(Cc2ccccc2)c(=O)n1Cc1ccc(OC(F)F)cc1 [Cpd 13]	92	104 nM and 256 nM	91%	
N=C(N)NCCNc1nc(=O)n(Cc2ccccc2)c(=O)n1Cc1ccc(C(F)(F)F)cc1 [Cpd 15]	55	6110 nM		
COc1ccc(Cn2c(NCCNC(=N)N)nc(=O)n(Cc3ccccc3F)c2=O)cc1 [Cpd 16]	77	836 nM		
COc1ccc(Cn2c(NCCNC(=N)N)nc(=O)n(Cc3ccc(F)cc3)c2=O)cc1 [Cpd 17, N-{2-[5-(4-Fluoro-benzyl)-1-(4-methoxy-benzyl)-4,6-dioxo-1,4,5,6-tetrahydro-[1,3,5]triazin-2-ylamino]-ethyl}-guanidine]	100	14 nM and 33 nM and 87 nM	99% and 97%	
COc1ccc(Cn2c(NCCNC(=N)N)nc(=O)n(Cc3ccc(Cl)c(Cl)c3)c2=O)cc1 [Cpd 18]	98	7 nM and 28 nM and 41 nM and 22 nM and 54 nM	100% and 101% and 99%	
N=C(N)NCCNc1nc(=O)n(Cc2ccccc2)c(=O)n1Cc1ccc(OC(F)(F)F)cc1 [Cpd 19]	81	862 nM		
COc1ccc(Cn2c(NCCNC(=N)N)nc(=O)n(Cc3cccc(OC)c3)c2=O)cc1 [Cpd 20]	61	3690 nM		
COc1ccc(Cn2c(NCCNC(=N)N)nc(=O)n(Cc3ccccc3OC)c2=O)cc1 [Cpd 21]	43	> 10000 nM		
N=C(N)NCCNc1nc(=O)n(Cc2ccccc2)c(=O)n1Cc1ccc(C(N)=O)cc1 [Cpd 22]	80	947 nM		
CC(=O)Nc1ccc(Cn2c(NCCNC(=N)N)nc(=O)n(Cc3ccccc3)c2=O)cc1 [Cpd 23]	74	1250 nM		

Structure (SMILES)	inhibition at 10 µM [%]	IC50	Ca^2+ Mobilization % Inh @10 μM (10 µM)	Ca^2+ Mobilization % Inh @10 μM [%]
CCOc1ccc(Cn2c(NCCNC(=N)N)nc(=O)n(Cc3ccc(F)cc3)c2=O)cc1 [Cpd 24]	99	41 nM		
COc1ccc(Cn2c(NCCNC(=N)NC#N)nc(=O)n(Cc3ccc(Cl)c(Cl)c3)c2=O)cc1 [Cpd 28, N-{2-[5-(3,4-Dichloro-benzyl)-1-(4-methoxy-benzyl)-4,6-dioxo-1,4,5,6-tetrahydro-[1,3,5]triazin-2-ylamino]-ethyl}-N′-cyano-guanidine]	101	710 nM		
CCOc1ccc(Cn2c(NCCNC(=N)N)nc(=O)n(Cc3ccc(Cl)c(Cl)c3)c2=O)cc1 [Cpd 29]	101	42 nM and 47 nM	102%	
COc1ccc(Cn2c(NCCNC(=N)N)nc(=O)n(Cc3ccc(Cl)cc3)c2=O)cc1 [Cpd 30]	101	9 nM and 19 nM	103%	
COc1ccc(Cn2c(NCCNC(=N)N)nc(=O)n(Cc3ccc(OC)cc3)c2=O)cc1 [Cpd 31]	101	9 nM and 21 nM	102%	
COc1ccc(Cn2c(NCCCCNC(=N)N)nc(=O)n(Cc3ccc(Cl)c(Cl)c3)c2=O)cc1 [Cpd 32]	88	601 nM and 781 nM	86%	
COc1ccc(CCn2c(NCCNC(=N)N)nc(=O)n(Cc3ccc(F)cc3)c2=O)cc1 [Cpd 33]	66	2860 nM		
N=C(N)NCCNc1nc(=O)n(Cc2ccc(Cl)c(Cl)c2)c(=O)n1Cc1ccc(OC2CCCC2)cc1 [Cpd 36]	77	1320 nM		
CSc1ccc(Cn2c(NCCNC(=N)N)nc(=O)n(Cc3ccc(Cl)c(Cl)c3)c2=O)cc1 [Cpd 37]	98	38 nM and 201 nM and 326 nM	100% and 98% and 99%	
CCc1ccc(Cn2c(NCCNC(=N)N)nc(=O)n(Cc3ccc(Cl)c(Cl)c3)c2=O)cc1 [Cpd 38]	98	55 nM and 178 nM and 194 nM	94% and 98%	
COc1ccc(Cn2c(NCCNC(=N)N)nc(=O)n(Cc3cccc(Cl)c3)c2=O)cc1 [Cpd 39]	81	909 nM		
N=C(N)NCCNc1nc(=O)n(Cc2ccc(Cl)c(Cl)c2)c(=O)n1Cc1ccc(OC(F)(F)F)cc1 [Cpd 40]	98	248 nM		
N=C(N)NCCNc1nc(=O)n(Cc2ccc(Cl)c(Cl)c2)c(=O)n1Cc1ccc(OC(F)F)cc1 [Cpd 41]	101	27 nM and 47 nM and 64 nM	100% and 99%	
COc1ccc(Cn2c(N[C@H]3CCCC[C@@H]3NC(=N)N)nc(=O)n(Cc3ccc(Cl)c(Cl)c3)c2=O)cc1 [Cpd 43]	31	> 10000 nM		
COc1ccc(Cn2c(NCCNC(=N)N)nc(=O)n(Cc3ccc(SC)cc3)c2=O)cc1 [Cpd 45]	103	18 nM		
CCc1ccc(Cn2c(=O)nc(NCCNC(=N)N)n(Cc3ccc(OC)cc3)c2=O)cc1 [Cpd 46, N-{2-[5-(4-Ethyl-benzyl)-1-(4-methoxy-benzyl)-4,6-dioxo-1,4,5,6-tetrahydro-[1,3,5]triazin-2-ylamino]-ethyl}-guanidine]	101	58 nM		
COc1ccc(Cn2c(NCCNC3=NCC(=O)N3)nc(=O)n(Cc3ccc(Cl)c(Cl)c3)c2=O)cc1 [Cpd 48, 3-(3,4-Dichloro-benzyl)-1-(4-methoxy-benzyl)-6-[2-(5-oxo-4,5-dihydro-1H-imidazol-2-ylamino)-ethylamino]-1H-[1,3,5]triazine-2,4-dione]	94	798 nM		
COc1ccc(Cn2c(NCCNC3=NCCN3)nc(=O)n(Cc3ccc(Cl)c(Cl)c3)c2=O)cc1 [Cpd 49, 3-(3,4-Dichloro-benzyl)-6-[2-(4,5-dihydro-1H-imidazol-2-ylamino)-ethylamino]-1-(4-methoxy-benzyl)-1H-[1,3,5]triazine-2,4-dione]	75	2000 nM		
CC(=O)Nc1ccc(Cn2c(NCCNC(=N)N)nc(=O)n(Cc3ccc(Cl)c(Cl)c3)c2=O)cc1 [Cpd 50]	96	248 nM		
N=C(N)NCCNc1nc(=O)n(Cc2ccc(Cl)c(Cl)c2)c(=O)n1Cc1ccc(C(N)=O)cc1 [Cpd 51, 4-[3-(3,4-Dichlorobenzyl)-6-(2-guanidinoethylamino)-2,4-dioxo-3,4-dihydro-2H-[1,3,5]triazin-1-yl-methyl]-benzamide]	100	47 nM		
CCOc1cccc(Cn2c(NCCNC(=N)N)nc(=O)n(Cc3ccc(Cl)c(Cl)c3)c2=O)c1 [Cpd 52]	58	6520 nM		
CCCNC(=N)NCCNc1nc(=O)n(Cc2ccc(Cl)c(Cl)c2)c(=O)n1Cc1ccc(OC)cc1 [Cpd 54]	98	14 nM and 6 nM	101%	
COc1ccc(Cn2c(N3CCC(NC(=N)N)C3)nc(=O)n(Cc3ccc(Cl)c(Cl)c3)c2=O)cc1 (stereo not drawn) [Cpd 55]	58	6730 nM		
